Measurements published in patent US7098208B2, “Inhibitors of Akt activity” (Merck & Co., Inc., priority 2001, dated 2006).

Tested on: PKC (mix of isoforms)
Assay: PKC Assay (counter screen)
Assay type: biochemical
Settings: myelin basic protein substrate; read-out: Counter screens IC50 (μM) PKC
Protocol: Each PKC assay consists of the following components:
Final assay concentrations were as follows: 0.25 mM EGTA, 0.4 mM CaCl, 20 mM Tris pH 7.5, 10 mM MgCl, 1 mM 2-mercaptoethanol, 0.32 mg/ml phosphatidylserine, 0.032 mg/ml diacylglycerol, 10 μM ^33P-ATP, 70 μg/ml MBP, 10 ng/ml PKC, 0.1 mg/ml BSA.
Assays are performed using 96 deep well assay plates. In each assay well 10 μl of solvent control or appropriate inhibitor dilution with 5 μl ^33P-ATP (components #5 and #3) were premixed. In a separate tube, a mixture containing equal volumes of components #1, #2, #4, and #6 was prepared. The assay reaction was initiated by adding 35 μL of the components #1, #2, #4, and #6 mixture to wells containing ^33P-ATP and inhibitor. The liquid in the assay wells was thoroughly mixed and the assay reactions incubated for 20 minutes at room temperature. The reactions were stopped by adding 100 mM EDTA (50 μl) and 100 mM sodium pyrophosphate (50 μl) and mixing. Phosphorylated MBP was collected on PVDF membranes in 96 well filter plates and quantitated by scintillation counting.

CN(C)CC(C)(C)CNc1nn2c(-c3ccccc3)nnc2cc1C1CCC1 [Compound 1, N′-(7-Cyclobutyl-3-phenyl-[1,2,4]triazolo[4,3-b]pyridazin-6-yl)-2,2,N,N-tetramethyl-propane-1,3-diamine]
IC50: > 40 µM

CN(C)CC(C)(C)CNc1nn2c(-c3cc(F)cc(F)c3)nnc2cc1C1CCC1 [Compound 2, N′-(7-Cyclobutyl-3-(3,5-difluoro-phenyl)-[1,2,4]triazolo[4,3-b]pyridazin-6-yl)-2,2,N,N-tetramethyl-propane-1,3-diamine]
IC50: > 40 µM

CN(C)CC(C)(C)CNc1nn2c(-c3ccc(F)c(F)c3)nnc2cc1C1CCC1 [Compound 3, N′-(7-Cyclobutyl-3-(3,4-difluoro-phenyl)-[1,2,4]triazolo[4,3-b]pyridazin-6-yl)-2,2,N,N-tetramethyl-propane-1,3-diamine]
IC50: > 40 µM

CN(C)CC(C)(C)CNc1nn2c(-c3ccc(F)cc3)nnc2cc1C1CCC1 [Compound 4, N′-(7-Cyclobutyl-3-(4-fluoro-phenyl)-[1,2,4]triazolo[4,3-b]pyridazin-6-yl)-2,2,N,N-tetramethyl-propane-1,3-diamine]
IC50: > 40 µM

CN(C)CC(C)(C)CNc1nn2c(-c3cccc(F)c3)nnc2cc1C1CCC1 [Compound 5, N′-(7-Cyclobutyl-3-(3-fluoro-phenyl)-[1,2,4]triazolo[4,3-b]pyridazin-6-yl)-2,2,N,N-tetramethyl-propane-1,3-diamine]
IC50: > 40 µM
